# Tests used:
# TYK2 Pseudokinase (JH2) [1] = target: T1, TYK2 Pseudokinase (JH2) (Homo sapiens, UniProt P29597); assay: HEK-Blue IL-23 reporter assay (STAT3-inducible SEAP) for profiling TYK2 pseudokinase (JH2) inhibition; type: cell-based; settings: HEK-Blue IL-23 cells, 10 ng/mL human recombinant IL-23, SEAP readout; read-out: IL23
# T1 construct: HEK-Blue™ IL-23 and IFNα/0 cells with a stably-integrated cytokine receptor and STAT3 or STAT1; endogenous in cells; host or cells: HEK-Blue IL-23 and HEK-Blue IFNα/β reporter cells
# Method: (§1) HEK-Blue™ IL-23 and IFNα/0 cells with a stably-integrated cytokine receptor and STAT3 or STAT1 express STAT-inducible secreted embryonic alkaline phosphatase (SEAP) reporter gene upon cytokine stimulation. These cells are plated in DMEM (Gibco) containing 10% heat-inactivated FBS (Gibco) and 100 U/mL PenStrep (Gibco) at 37° C. under 5% CO2 conditions for 20-22 hours. The cells are then pretreated with serially diluted test compounds for 60 min prior to stimulation with either 10 ng/mL human recombinant IL-23 (Miltenyl Biotech) or 1 ng/mL human recombinant IFNα (InvivoGen) for 22-24 hours for IL-23 or 16-18 h for IFNα. SEAP induction is measured using the QUANTI Blue™ Solution (InvivoGen) according to the manufacturer's instructions.
# TYK2 Pseudokinase (JH2) [2] = target: T1, TYK2 Pseudokinase (JH2); assay: HEK-Blue IFNα/β reporter assay (STAT1-inducible SEAP) for profiling TYK2 pseudokinase (JH2) inhibition; type: cell-based; settings: HEK-Blue IFNα/β cells, 1 ng/mL human recombinant IFNα, SEAP readout
# Method: as §1
# JAK1-JH1 = target: T2, JAK1-JH1 (Homo sapiens, UniProt P23458); assay: HTRF-based selectivity assay, JAK1 catalytic domain; type: biochemical; settings: kinase domain (JH1), 21.43 μM ATP
# T2 construct: recombinant purified His or GST-tagged catalytic domain for each enzyme; made in house
# Method: The ability of compounds to inhibit the activity of JAK1, JAK2, JAK3 and TYK2 is measured using a recombinant purified His or GST-tagged catalytic domain for each enzyme (JAK1, JAK2 and TYK2 are generated in-house; JAK3 was purchased from Carna biosciences, Cat #08-046) in an HTRF format biochemical assay. The reactions employs a commercial peptide substrate from Cisbio (Cat #62TK0PEC). The basic assay protocol is as follows: first, 2.5 μL of diluted compounds (4×) in DMSO are dispensed into a 384-well Optiplate. Next, 2.5 μL of enzyme (final concentrations for enzymes are: TYK2- 700 ng/mL, JAK1- 80.6 ng/mL, JAK2- 2.1 ng/mL and JAK3- 171.8 ng/mL) is added and incubated at RT for 5-20 min. Finally, 5 μl of mixture of 2×ATP [Final concentration 20 μM for TYK2, 21.43 μM for JAK1, 14.7 μM for JAK2 and 2.12 μM for JAK3]^+2× Substrate [Final concentration 217 nM for TYK2, 454.7 nM for JAK1, 200 nM for JAK2 and 257.4 nM for JAK3] is added to 384 well Optiplate. Composition of Kinase assay buffer used in the assay is as follows: HEPES 50 mM, EGTA 1 mM, MgCl2 10 mM, DTT 2 mM, Tween-20 0.01% and water. Then the plates are shaken and then incubated at 26.5° C. for 60 min.
# IL-2 = assay: HEK-Blue IL-2 reporter assay (STAT5-inducible SEAP) for determining selectivity; type: cell-based; settings: HEK-Blue IL-2 reporter cells, 4 ng/mL human recombinant IL-2, SEAP readout
# Method: (§2) HEK-Blue™ IL-2 and IFNγ reporter cells with a stably-integrated cytokine receptor and STAT5 or STAT1 express STAT-inducible secreted embryonic alkaline phosphatase (SEAP) reporter gene upon cytokine stimulation. These cells were plated in DMEM (Gibco) containing 10% heat-inactivated FBS (Gibco) and 100 U/mL PenStrep (Gibco) at 37° C. under 5% CO2 conditions for 20-22 hours. The cells were then pretreated with serially diluted test compounds for 60 min prior to stimulation with either 4 ng/mL human recombinant TL-2 (Miltenyl Biotech) or 50 ng/mL human recombinant IFNγ (InvivoGen) for 24 hours. SEAP induction was measured using the QUANTI-Blue™ Solution (InvivoGen) according to the manufacturer's instructions.
# IFN-γ = assay: HEK-Blue IFNγ reporter assay (STAT1-inducible SEAP) for determining selectivity; type: cell-based; settings: HEK-Blue IFNγ reporter cells, 50 ng/mL human recombinant IFNγ, SEAP readout
# Method: as §2
# T1 sequence (P29597 whole entry): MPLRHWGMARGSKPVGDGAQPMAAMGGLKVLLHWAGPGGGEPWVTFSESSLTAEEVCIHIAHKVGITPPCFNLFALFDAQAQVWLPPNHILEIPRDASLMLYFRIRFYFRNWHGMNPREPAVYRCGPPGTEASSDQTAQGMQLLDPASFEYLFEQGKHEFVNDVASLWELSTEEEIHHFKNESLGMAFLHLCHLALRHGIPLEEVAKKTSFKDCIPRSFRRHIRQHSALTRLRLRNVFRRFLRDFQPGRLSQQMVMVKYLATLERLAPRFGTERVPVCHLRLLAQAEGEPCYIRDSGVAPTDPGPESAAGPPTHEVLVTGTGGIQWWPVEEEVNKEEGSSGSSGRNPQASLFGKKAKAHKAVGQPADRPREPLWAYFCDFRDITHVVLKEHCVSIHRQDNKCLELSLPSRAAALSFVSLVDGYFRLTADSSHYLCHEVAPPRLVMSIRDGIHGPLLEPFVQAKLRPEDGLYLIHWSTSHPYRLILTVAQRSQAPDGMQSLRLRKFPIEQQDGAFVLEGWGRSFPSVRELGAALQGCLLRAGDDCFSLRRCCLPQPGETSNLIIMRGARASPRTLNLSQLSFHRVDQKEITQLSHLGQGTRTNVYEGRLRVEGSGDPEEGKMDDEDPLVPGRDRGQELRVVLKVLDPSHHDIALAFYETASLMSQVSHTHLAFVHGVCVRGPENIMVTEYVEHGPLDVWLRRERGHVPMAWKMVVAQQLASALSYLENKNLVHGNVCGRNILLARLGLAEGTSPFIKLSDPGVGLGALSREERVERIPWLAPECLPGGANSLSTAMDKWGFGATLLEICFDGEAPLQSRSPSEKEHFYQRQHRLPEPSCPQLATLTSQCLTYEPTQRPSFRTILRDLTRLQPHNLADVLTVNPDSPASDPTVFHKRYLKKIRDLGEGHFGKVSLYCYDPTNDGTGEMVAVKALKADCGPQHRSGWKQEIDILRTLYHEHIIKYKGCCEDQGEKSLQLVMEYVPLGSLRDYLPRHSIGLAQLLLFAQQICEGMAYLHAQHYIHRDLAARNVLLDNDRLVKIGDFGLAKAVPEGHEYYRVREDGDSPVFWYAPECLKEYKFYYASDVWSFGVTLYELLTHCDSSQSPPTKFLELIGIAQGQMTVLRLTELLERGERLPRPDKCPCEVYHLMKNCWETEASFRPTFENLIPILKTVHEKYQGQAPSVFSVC
# T2 sequence (P23458 875-1153 limits assumed): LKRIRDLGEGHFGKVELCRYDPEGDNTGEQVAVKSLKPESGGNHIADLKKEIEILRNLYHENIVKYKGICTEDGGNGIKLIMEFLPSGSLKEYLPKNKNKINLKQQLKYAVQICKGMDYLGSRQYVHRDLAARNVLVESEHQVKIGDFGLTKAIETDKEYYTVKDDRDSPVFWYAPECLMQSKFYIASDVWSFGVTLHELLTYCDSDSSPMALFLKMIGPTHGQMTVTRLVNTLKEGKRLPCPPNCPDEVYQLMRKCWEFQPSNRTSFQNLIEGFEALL
IC50 (TYK2 Pseudokinase (JH2) [1]),IC50 (TYK2 Pseudokinase (JH2) [2]),IC50 (JAK1-JH1),IC50 (IL-2),IC50 (IFN-γ),Compound
< 30 nM,< 30 nM,,,,"CCONC(=O)c1nnc(NC(=O)C2CC2)cc1Nc1nccc2c1N(C)[C@@H](C)c1nn(C)nc1-2 (single isomer, unassigned) [Compound 16]"
300 to 1000 nM,,> 1000 nM,,,"Cn1cc2c(n1)-c1cccc(Nc3cc(NC(=O)C4CC4)nc4[nH]n(C)c(=O)c34)c1OC2 [Compound 1, N-(2-methyl-4-((2-methyl-2,4-dihydrochromeno[4,3-c]pyrazol-6-yl)amino)-3-oxo-2,3-dihydro-1H-pyrazolo[3,4-b]pyridin-6-yl)cyclopropanecarboxamide]"
< 30 nM,< 30 nM,> 1000 nM,,,"CN1Cc2cn(C)nc2-c2cccc(Nc3cc(NC(=O)C4CC4)nc4[nH]n(C)c(=O)c34)c21 [Compound 2, N-(4-((2,5-dimethyl-4,5-dihydro-2H-pyrazolo[4,3-c]quinolin-6-yl)amino)-2-methyl-3-oxo-2,3-dihydro-1H-pyrazolo[3,4-b]pyridin-6-yl)cyclopropanecarboxamide]"
< 30 nM,30 to 300 nM,,> 1000 nM,> 1000 nM,"Cc1nc2n(n1)-c1cccc(Nc3cc(NC(=O)C4CC4)nc4[nH]n(C)c(=O)c34)c1N(C)[C@H]2C [Compound 3, (S)—N-(2-methyl-3-oxo-4-((2,4,5-trimethyl-4,5-dihydro-[1,2,4]triazolo[1,5-a]quinoxalin-6-yl)amino)-2,3-dihydro-1H-pyrazolo[3,4-b]pyridin-6-yl)cyclopropanecarboxamide]"
> 1000 nM,> 1000 nM,,,,"[2H]C([2H])([2H])NC(=O)c1c(Nc2cccc3c2N(C)[C@@H](C)c2nc(C)nn2-3)cc(NC(=O)C2CC2)nc1N [Compound 4, (S)-2-amino-6-(cyclopropanecarboxamido)-N-(methyl-d3)-4-((2,4,5-trimethyl-4,5-dihydro-[1,2,4]triazolo[1,5-a]quinoxalin-6-yl)amino)nicotinamide]"
> 1000 nM,> 1000 nM,,,,"CNC(=O)c1cnc2[nH]ccc2c1Nc1cccc2c1N(C)CCn1cnnc1-2 [Compound 6, N-methyl-4-((7-methyl-6,7-dihydro-5H-benzo[f][1,2,4]triazolo[4,3-d][1,4]diazepin-8-yl)amino)-1H-pyrrolo[2,3-b]pyridine-5-carboxamide]"
> 1000 nM,> 1000 nM,,,,"CNC(=O)c1cnc2[nH]ccc2c1Nc1cccc2c1N(C)Cc1cn(C)nc1-2 [Compound 7, 4-((2,5-dimethyl-4,5-dihydro-2H-pyrazolo[4,3-c]quinolin-6-yl)amino)-N-methyl-1H-pyrrolo[2,3-b]pyridine-5-carboxamide]"
< 30 nM,30 to 300 nM,,,,"CONC(=O)c1cnc(NC(=O)C2CC2)cc1Nc1cccc2c1N(C)[C@@H](C)c1nc(C)nn1-2 [Compound 8, (S)-6-(cyclopropanecarboxamido)-N-methoxy-4-((2,4,5-trimethyl-4,5-dihydro-[1,2,4]triazolo[1,5-a]quinoxalin-6-yl)amino)nicotinamide]"
< 30 nM,< 30 nM,,,,"CCONC(=O)c1cnc(NC(=O)C2CC2)cc1Nc1cccc2c1N(C)[C@@H](C)c1nc(C)nn1-2 [Compound 9, (S)-6-(cyclopropanecarboxamido)-N-ethoxy-4-((2,4,5-trimethyl-4,5-dihydro-[1,2,4]triazolo[1,5-a]quinoxalin-6-yl)amino)nicotinamide]"
< 30 nM,30 to 300 nM,,,,"CONC(=O)c1nnc(NC(=O)C2CC2)cc1Nc1cccc2c1N(C)[C@@H](C)c1nc(C)nn1-2 [Compound 10, (S)-6-(cyclopropanecarboxamido)-N-methoxy-4-((2,4,5-trimethyl-4,5-dihydro-[1,2,4]triazolo[1,5-a]quinoxalin-6-yl)amino)pyridazine-3-carboxamide]"
< 30 nM,< 30 nM,,,,"CONC(=O)c1nnc(Nc2ccc(F)cn2)cc1Nc1cccc2c1N(C)[C@@H](C)c1nc(C)nn1-2 [Compound 11, (S)-6-((5-fluoropyridin-2-yl)amino)-N-methoxy-4-((2,4,5-trimethyl-4,5-dihydro-[1,2,4]triazolo[1,5-a]quinoxalin-6-yl)amino)pyridazine-3-carboxamide]"
< 30 nM,< 30 nM,,,,"CONC(=O)c1nnc(Nc2cc(C)nc(C)n2)cc1Nc1cccc2c1N(C)[C@@H](C)c1nc(C)nn1-2 [Compound 12, (S)-6-((2,6-dimethylpyrimidin-4-yl)amino)-N-methoxy-4-((2,4,5-trimethyl-4,5-dihydro-[1,2,4]triazolo[1,5-a]quinoxalin-6-yl)amino)pyridazine-3-carboxamide]"
< 30 nM,30 to 300 nM,,,,"CCONC(=O)c1nnc(NC(=O)C2CC2)cc1Nc1cccc2c1N(C)[C@@H](C)c1nc(C)nn1-2 [Compound 13, (S)-6-(cyclopropanecarboxamido)-N-ethoxy-4-((2,4,5-trimethyl-4,5-dihydro-[1,2,4]triazolo[1,5-a]quinoxalin-6-yl)amino)pyridazine-3-carboxamide]"
< 30 nM,< 30 nM,,,,"CCONC(=O)c1nnc(Nc2cc(C)nc(C)n2)cc1Nc1cccc2c1N(C)[C@@H](C)c1nc(C)nn1-2 [Compound 14, (S)-6-((2,6-dimethylpyrimidin-4-yl)amino)-N-ethoxy-4-((2,4,5-trimethyl-4,5-dihydro-[1,2,4]triazolo[1,5-a]quinoxalin-6-yl)amino)pyridazine-3-carboxamide]"
< 30 nM,< 30 nM,,,,"CCONC(=O)c1nnc(Nc2ccc(F)cn2)cc1Nc1cccc2c1N(C)[C@@H](C)c1nc(C)nn1-2 [Compound 15, (S)—N-ethoxy-6-((5-fluoropyridin-2-yl)amino)-4-((2,4,5-trimethyl-4,5-dihydro-[1,2,4]triazolo[1,5-a]quinoxalin-6-yl)amino)pyridazine-3-carboxamide]"

# — patent US20260055121A1, “TYK2 INHIBITORS AND USES THEREOF” (Sudo Biosciences Limited, priority 2022, published 2026)
